Data published in patent US6030993A, “2-hydroxypropionic acid derivative and its manufacturing method” (Sang Sup JEW, priority 1996, dated 2000).
“Also recorded” adds a separate entry of the source.

Tested on: diabetes-induced Sprague-Dawley rats
Assay: Blood glucose lowering effect in streptozotocin diabetes-induced rats, oral
Format: in vivo
Details: Rattus norvegicus; STZ (45 mg/kg) diabetic male Sprague-Dawley rats; 50 mg/kg oral in 30% ethanol; smallest blood glucose of 90, 120 and 180 min; read-out: Blood glucose lowering rate
Experimental: Two groups of male diabetes-induced Sprague-Dawley rats (each of 4-5 rats weighing about 250 g per group) were used for this experiment. 45 mg/kg of streptozotocin (STZ) dissolved in 0.1M citrate buffer (pH 4.5, 0-4° C.) was injected to the tail vein of fasted rats for 1 day. After elapse of 7 days, their blood glucose concentration were measured and animals having the blood serum concentration of more than 350 mg/dl were used as diabetes-induced rats for this experiment. The rats were intravenously administered at a daily dose of 1 ml/kg, while the normal control group received equal volume of 0.1M citrate buffer.
7 days after being treated with streptozotocin, diabetes-induced rats were orally administered at a dose of 50 mg/kg of the compounds prepared by the procedures of Examples 1-13. Then, at time intervals of 90 mins, 120 mins and 180 mins, their blood glucose concentrations were measured and the smallest values were taken. The compounds of Example 1-13 were dissolved in 30% ethanol until its final concentration became 2 ml/kg, while the control group was orally received equal volume of 30% ethanol.
Significant difference between two groups was determined by ANOVA test, together with a post hoc test using Newman-Keuls test.

Row | Compound | inhibition in vivo at 50 mg/kg [%]
1 | CCOC(=O)C(O)(CO)CCCCCCOCc1ccccc1 (stereo not drawn) [Example 1, Ethyl-2,3-dihydroxy-2-(6-benzoxy)hexylpropionate] | 38.5
2 | CCOC(=O)C(O)(CO)CCCCCCOCc1ccc(OC)cc1 (stereo not drawn) [Example 2, Ethyl-2,3-dihydroxy-2-[6-(4-methoxybenzoxy)hexyl]propionate] | 10
3 | CCOC(=O)C(O)(CO)CCCCCCOc1ccc(Cl)cc1 (stereo not drawn) [Example 3, Ethyl-2,3-dihydroxy-2-[6-(4-chlorophenoxy)hexyl]propionate] | 23
4 | CCOC(=O)C(O)(CO)CCCCCCOCc1ccc(C)o1 (stereo not drawn) [Example 5, Ethyl-2,3-dihydroxy-2-[6-(5-methyl-2-furanmethoxy)hexyl]propionate] | 22
5 | CCOC(=O)C(O)(CO)CCCCCCOCCc1cccs1 (stereo not drawn) [Example 6, Ethyl-2,3-dihydroxy-2-[6-(2-thiophenethoxy)hexyl]propionate] | 1.2
6 | CCOC(=O)C(O)(CO)CCCCCCOCc1ccc(Cl)s1 (stereo not drawn) [Example 7, Ethyl-2,3-dihydroxy-2-[6-(5-chloro-2-thiophenmethoxy)hexyl]propionate] | 19.2
7 | CCOC(=O)C(O)(CO)CCCCCCOCc1sccc1Cl (stereo not drawn) [Example 8, Ethyl-2,3-dihydroxy-2-[6-(3-chloro-2-thiophenmethoxy)hexyl]propionate] | 26
8 | CCOC(=O)C(O)(CBr)CCCCCCOc1ccc(Cl)cc1 (stereo not drawn) [Example 9] | 22
9 | CCOC(=O)C(O)(CCCCCCOCc1ccccc1)COS(=O)(=O)c1ccc(C)cc1 (stereo not drawn) [Example 10, Ethyl 2-hydroxy-3-(4-methylbenzenesulfoxy)-2-[6-benzoxyhexyl]propionate] | 34.1
10 | CCOC(=O)C(O)(CBr)CCCCCCOCCc1cccs1 (stereo not drawn) [Example 11, Ethyl 2-hydroxy-3-bromo-2-[6-(2-thiophenethoxy)hexyl]propionate] | 13
11 | CCOC(=O)C(O)(CBr)CCCCCCOCc1ccc(Cl)s1 (stereo not drawn) [Example 12, Ethyl 2-hydroxy-3-bromo-2-[6-(5-chlorothiophenemethoxy)hexyl]propionate] | 26.4
12 | CCOC(=O)C(O)(CBr)CCCCCCOCc1sccc1Cl (stereo not drawn) [Example 13, Ethyl 2-hydroxy-3-bromo-2-[6-(3-chlorothiophenemethoxy)hexyl]propionate] | 19.3

Same assay, conditions: STZ (45 mg/kg) diabetic male Sprague-Dawley rats; 50 mg/kg oral in 30% ethanol; smallest blood glucose of 90, 120 and 180 min

Row | Compound | Blood glucose lowering rate [%]
13 | CCOC(=O)C(O)(CO)CCCCCCn1nc(C)cc1C (stereo not drawn) [Example 4, Ethyl-2,3-dihydroxy-2-[6-(3,5-dimethylpyrazol)hexyl]propionate] | 19.8

Tested on: not listed separately
Assay: Acute oral toxicity test in rats
Details: rat, in vivo, mature rats 200-250 g, dissolved in ethylacetate
Experimental: The acute toxicity tests on rats were performed using the compound prepared by the procedure of the Example 1. Mature rats weighing 200-250 g were orally given the compound of the Example 1 dissolved in ethylacetate in parallel with its gradually increasing concentration. Then, LD50 was calculated by number of killed animals.

Row | Compound | LD50 [mg/kg]
14 | CCOC(=O)C(O)(CO)CCCCCCOCc1ccccc1 (stereo not drawn) [Example 1, Ethyl-2,3-dihydroxy-2-(6-benzoxy)hexylpropionate] | 482

Tested on: not given
Assay: not given
Details: phase II clinical trials, discontinued; cited from earlier work

Row | Compound | side effects associated with prolonged administration
15 | CCOC(=O)[C@@]1(CCCCCCOc2ccc(Cl)cc2)CO1 [etomoxir] | enlarged heart; also recorded: toxicity in the liver
